Experimental data reported in PubChem BioAssay (NCI).
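The compound was tested at five concentrations on cells cultured in 96-well plates, with a 48-hour exposure period. GI50 = concentration required for 50% inhibition of growth. TGI marks complete inhibition of growth.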

Experiments:
Experiment in all cases: inhibition of tumour cell growth, NCI panel, 48 h
[1] = test system: HT29 colon
[2] = test system: HOP-92 NSCLC
[3] = test system: TK-10 renal
[4] = test system: M14 melanoma
[5] = test system: HCT-116 colon
[6] = test system: ACHN renal
[7] = test system: DU-145 prostate
[8] = test system: SK-MEL-2 melanoma
[9] = test system: NCI/ADR-RES ovarian
[10] = test system: PC-3 prostate
[11] = test system: U251 CNS
[12] = test system: OVCAR-8 ovarian
[13] = test system: EKVX NSCLC
[14] = test system: SR leukemia
[15] = test system: T-47D breast
[16] = test system: SF-268 CNS
[17] = test system: HCC-2998 colon
[18] = test system: SF-539 CNS
[19] = test system: KM12 colon
[20] = test system: NCI-H23 lung
[21] = test system: MDA-MB-435
[22] = test system: A549 NSCLC
[23] = test system: NCI-H226 lung
[24] = test system: A498 renal
[25] = test system: HL-60(TB) leukemia
[26] = test system: HS 578T breast
[27] = test system: SK-MEL-28 melanoma
[28] = test system: UO-31 renal
[29] = test system: COLO 205 colon
[30] = test system: HCT-15 colon
[31] = test system: SK-OV-3 ovarian
[32] = test system: CAKI-1 renal
[33] = test system: OVCAR-3 ovarian
[34] = test system: MCF7 breast
[35] = test system: SK-MEL-5 melanoma
[36] = test system: HOP-62 NSCLC
[37] = test system: 786-0 renal
[38] = test system: SF-295 CNS
[39] = test system: SN12C renal
[40] = test system: RPMI-8226 leukemia
[41] = test system: NCI-H460 lung
[42] = test system: IGROV1 ovarian
[43] = test system: MALME-3M melanoma
[44] = test system: OVCAR-4 ovarian
[45] = test system: CCRF-CEM leukemia
[46] = test system: UACC-257 melanoma
[47] = test system: RXF 393 renal
[48] = test system: NCI-H522 lung
[49] = test system: LOX IMVI melanoma
[50] = test system: MOLT-4 leukemia
[51] = test system: SNB-75 CNS
[52] = test system: SW-620 colon
[53] = test system: SNB-19 CNS
[54] = test system: MDA-MB-231 breast
[55] = test system: K-562 leukemia
[56] = test system: OVCAR-5 ovarian
[57] = test system: UACC-62 melanoma
[58] = test system: BT-549 breast

`CC1(C)CN(c2cc(C(F)(F)F)cc3cncn23)CCC12NC(=O)NC2=O` (stereo unspecified) was tested, and the GI50 [1] was 50.9 µM, the TGI [1] was over 100 µM and the GI50 [2] was 20.1 µM. For the same compound, the TGI [2] was 86.5 µM, the GI50 [3] was 37.8 µM and the TGI [3] was over 100 µM. It also gave a GI50 [4] of 33.4 µM, a TGI [4] of over 100 µM and a GI50 [5] of 26.3 µM. It also gave a TGI [5] of over 100 µM, a GI50 [6] of 33.7 µM and a TGI [6] of over 100 µM. For the same compound, the GI50 [7] was 56.2 µM, the TGI [7] was over 100 µM and the GI50 [8] was 32.4 µM. The TGI [8] was over 100 µM, the GI50 [9] was 67.5 µM and the TGI [9] was over 100 µM. For the same compound, the GI50 [10] was 24.4 µM, the TGI [10] was over 100 µM and the GI50 [11] was 37.5 µM. For the same compound, the TGI [11] was over 100 µM, the GI50 [12] was 36 µM and the TGI [12] was over 100 µM. The GI50 [13] was 4.33 µM, the TGI [13] was 40.6 µM and the GI50 [14] was 48.5 µM. The TGI [14] was over 100 µM, the GI50 [15] was 21.4 µM and the TGI [15] was over 100 µM. The GI50 [16] was 38.7 µM, the TGI [16] was over 100 µM and the GI50 [17] was 72.5 µM. For the same compound, the TGI [17] was over 100 µM, the GI50 [18] was 42.5 µM and the TGI [18] was over 100 µM. For the same compound, the GI50 [19] was 45.1 µM, the TGI [19] was over 100 µM and the GI50 [20] was 35.5 µM. It also gave a TGI [20] of over 100 µM, a GI50 [21] of 42.2 µM and a TGI [21] of over 100 µM. The GI50 [22] was 38 µM, the TGI [22] was over 100 µM and the GI50 [23] was 33.5 µM. The TGI [23] was over 100 µM, the GI50 [24] was 16.8 µM and the TGI [24] was 55.3 µM. The GI50 [25] was 22 µM, the TGI [25] was 48.9 µM and the GI50 [26] was 21.1 µM. For the same compound, the TGI [26] was 90.1 µM, the GI50 [27] was 49.9 µM and the TGI [27] was over 100 µM. For the same compound, the GI50 [28] was 21.1 µM, the TGI [28] was 83.7 µM and the GI50 [29] was 41.9 µM. It also gave a TGI [29] of over 100 µM, a GI50 [30] of 32.4 µM and a TGI [30] of over 100 µM. For the same compound, the GI50 [31] was 36.9 µM, the TGI [31] was over 100 µM and the GI50 [32] was 19.2 µM. It also gave a TGI [32] of 92 µM, a GI50 [33] of 38.5 µM and a TGI [33] of over 100 µM. The GI50 [34] was 24.2 µM, the TGI [34] was over 100 µM and the GI50 [35] was 18.1 µM. The TGI [35] was 35.4 µM, the GI50 [36] was 40.3 µM and the TGI [36] was over 100 µM. It also gave a GI50 [37] of 32.8 µM, a TGI [37] of over 100 µM and a GI50 [38] of 30.3 µM. The TGI [38] was over 100 µM, the GI50 [39] was 36.2 µM and the TGI [39] was over 100 µM. It also gave a GI50 [40] of 30.5 µM, a TGI [40] of over 100 µM and a GI50 [41] of 40.5 µM. For the same compound, the TGI [41] was over 100 µM, the GI50 [42] was 30.5 µM and the TGI [42] was over 100 µM. The GI50 [43] was 42.3 µM, the TGI [43] was over 100 µM and the GI50 [44] was 31.6 µM. The TGI [44] was over 100 µM, the GI50 [45] was 35.6 µM and the TGI [45] was over 100 µM. The GI50 [46] was 52.7 µM, the TGI [46] was over 100 µM and the GI50 [47] was 17.5 µM. The TGI [47] was 61.1 µM, the GI50 [48] was 28.9 µM and the TGI [48] was over 100 µM. The GI50 [49] was 30.1 µM, the TGI [49] was over 100 µM and the GI50 [50] was 24.3 µM. The TGI [50] was over 100 µM, the GI50 [51] was 16.3 µM and the TGI [51] was 68.5 µM. It also gave a GI50 [52] of 52.6 µM, a TGI [52] of over 100 µM and a GI50 [53] of 46.8 µM. It also gave a TGI [53] of over 100 µM, a GI50 [54] of 29.2 µM and a TGI [54] of over 100 µM. For the same compound, the GI50 [55] was 40.9 µM, the TGI [55] was over 100 µM and the GI50 [56] was 66.1 µM. For the same compound, the TGI [56] was over 100 µM, the GI50 [57] was 27.7 µM and the TGI [57] was over 100 µM. The GI50 [58] was 23.2 µM and the TGI [58] was over 100 µM.
